Source: US20220062240A1, “METHODS OF TREATING CANCER USING A CLK INHIBITOR” (BioSplice Therapeutics, Inc., priority 2018, published 2022)
Where two headings read alike, the source gives them in different places.

Experiments:
Type in all cases: cell-based
BT-549 = assay: CellTiter-Glo Viability Assay, breast cancer; conditions: Homo sapiens, 96 h; BT-549, breast cancer, four days; read-out: EC50
CAMA1 = assay: CellTiter-Glo Viability Assay, breast cancer; conditions: Homo sapiens, CAMA-1, 96 h; CAMA1, breast cancer, four days; read-out: EC50
DU4475 = assay: CellTiter-Glo Viability Assay, breast cancer; conditions: Homo sapiens, DU-4475, 96 h; DU4475, breast cancer, four days; read-out: EC50
HCC1599 = assay: CellTiter-Glo Viability Assay, breast cancer; conditions: Homo sapiens, 96 h; HCC1599, breast cancer, four days; read-out: EC50
MCF7 = assay: CellTiter-Glo Viability Assay, breast cancer; conditions: Homo sapiens, 96 h; MCF7, breast cancer, four days; read-out: EC50
MDA-MB-231-Luc = assay: CellTiter-Glo Viability Assay, breast cancer; conditions: Homo sapiens, 96 h; MDA-MB-231-Luc, breast cancer, four days; read-out: EC50
T47D = assay: CellTiter-Glo Viability Assay, breast cancer; conditions: Homo sapiens, 96 h, breast cancer, four days, read-out: EC50
ZR-75-1 = assay: CellTiter-Glo Viability Assay, breast cancer; conditions: Homo sapiens, 96 h; ZR-75-1, breast cancer, four days; read-out: EC50
all 50 cell lines = assay: CellTiter-Glo Viability Assay, average across all cell lines; conditions: Homo sapiens; across all 50 cell lines; read-out: average EC50 for inhibition of cancer cell proliferation
How it was run: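 Cancer cell lines of several tumour types plated at 300-3,000 cells/well and exposed to compound in duplicate for four days at 37° C, 5% CO2, with DMSO-treated controls. Viability read by CellTiter-Glo luminescence (ATP content); EC50 derived from dose-response curves.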

[1] = system: colorectal cancer (6 cell lines); assay: CellTiter-Glo Viability Assay, colorectal cancer; conditions: Homo sapiens, inhibition of cancer cell proliferation
[2] = system: haematopoietic & lymphoid tumors (13 cell lines); assay: CellTiter-Glo Viability Assay, haematopoietic & lymphoid tumors; conditions: Homo sapiens, inhibition of cancer cell proliferation
[3] = system: liver cancer (3 cell lines); assay: CellTiter-Glo Viability Assay, liver cancer; conditions: Homo sapiens, inhibition of cancer cell proliferation
[4] = system: lung cancer (4 cell lines); assay: CellTiter-Glo Viability Assay, lung cancer; conditions: Homo sapiens, inhibition of cancer cell proliferation
[5] = system: ovarian cancer (4 cell lines); assay: CellTiter-Glo Viability Assay, ovarian cancer; conditions: Homo sapiens, inhibition of cancer cell proliferation
[6] = system: pancreatic cancer (8 cell lines); assay: CellTiter-Glo Viability Assay, pancreatic cancer; conditions: Homo sapiens, inhibition of cancer cell proliferation
[7] = system: prostate cancer (5 cell lines); assay: CellTiter-Glo Viability Assay, prostate cancer; conditions: Homo sapiens
[8] = HCT-116, HCT116 cell line, read-out: Colorectal cancer, EC50 (μM) HCT116
[9] = HT-29, HT29 cell line, read-out: Colorectal cancer, EC50 (μM) HT29
[10] = SW-620, SW620 cell line, read-out: Colorectal cancer, EC50 (μM) SW620
[11] = DLD-1 cell line, read-out: Colorectal cancer, EC50 (μM) DLD-1
[12] = SW48 cell line, read-out: Colorectal cancer, EC50 (μM) SW48
[13] = SW480 cell line, read-out: Colorectal cancer, EC50 (μM) SW480
[14] = DND41, DND-41 cell line, read-out: Haematopoietic & Lymphoid tumors, EC50 (μM) DND-41
[15] = MV4-11, MV-4-11 cell line, read-out: Haematopoietic & Lymphoid tumors, EC50 (μM) MV-4-11
[16] = Rec1, REC-1 cell line, read-out: Haematopoietic & Lymphoid tumors, EC50 (μM) REC-1
[17] = SU-DHL-4, SUDHL4 cell line, read-out: Haematopoietic & Lymphoid tumors, EC50 (μM) SUDHL4
[18] = HL-60 cell line, read-out: Haematopoietic & Lymphoid tumors, EC50 (μM) HL-60
[19] = JM1 cell line, read-out: Haematopoietic & Lymphoid tumors, EC50 (μM) JM1
[20] = JURKAT, Clone E6-1 cell line, read-out: Haematopoietic & Lymphoid tumors, EC50 (μM) JURKAT, Clone E6-1
[21] = JeKo-1 cell line, read-out: Haematopoietic & Lymphoid tumors, EC50 (μM) JeKo-1
[22] = KASUMI-1 cell line, read-out: Haematopoietic & Lymphoid tumors, EC50 (μM) KASUMI-1
[23] = Loucy cell line, read-out: Haematopoietic & Lymphoid tumors, EC50 (μM) Loucy
[24] = MOLT-4 cell line, read-out: Haematopoietic & Lymphoid tumors, EC50 (μM) MOLT-4
[25] = TF-1 cell line, read-out: Haematopoietic & Lymphoid tumors, EC50 (μM) TF-1
[26] = TOLEDO cell line, read-out: Haematopoietic & Lymphoid tumors, EC50 (μM) TOLEDO
[27] = SNU-398, SNU398 cell line, read-out: Liver cancer, EC50 SNU398
[28] = HEPG2 cell line, read-out: Liver cancer, EC50 HEPG2
[29] = PLC/PRF/5 cell line, read-out: Liver cancer, EC50 PLC/PRF/5
[30] = A-427, A427 cell line, read-out: Lung cancer, EC50 (μM) A427
[31] = HCC78, HCC-78 cell line, read-out: Lung cancer, EC50 (μM) HCC-78
[32] = NCI-H460 cell line, read-out: Lung cancer, EC50 (μM) NCI-H460
[33] = NCI-H522 cell line, read-out: Lung cancer, EC50 (μM) NCI-H522
[34] = PA-1, PA1 cell line, read-out: Ovarian cancer, EC50 (μM) PA1
[35] = TOV112D, TOV-112D cell line, read-out: Ovarian cancer, EC50 (μM) TOV-112D
[36] = OV-90 cell line, read-out: Ovarian cancer, EC50 (μM) OV-90
[37] = OVCAR-3 cell line, read-out: Ovarian cancer, EC50 (μM) OVCAR-3
[38] = BXPC-3, BxPC3 cell line, read-out: Pancreatic cancer, EC50 BxPC3
[39] = CAPAN-1, Capan1 cell line, read-out: Pancreatic cancer, EC50 Capan1
[40] = Capan-2, Capan2 cell line, read-out: Pancreatic cancer, EC50 Capan2
[41] = MIA PaCa-2 cell line, read-out: Pancreatic cancer, EC50 MIA PaCa-2
[42] = PANC 05.04 cell line, read-out: Pancreatic cancer, EC50 PANC 05.04
[43] = PANC-1 cell line, read-out: Pancreatic cancer, EC50 PANC-1
[44] = UPAFII cell line, read-out: Pancreatic cancer, EC50 UPAFII
[45] = DU-145, read-out: Prostate cancer EC50 Du-145
[46] = PC-3, PC3 cell line, inhibition of cancer cell proliferation, read-out: Prostate cancer EC50 PC3
[47] = 22Rv1 cell line, inhibition of cancer cell proliferation, read-out: Prostate cancer EC50 22Rv1
[48] = LNCap clone FGC cell line, inhibition of cancer cell proliferation, read-out: Prostate cancer EC50 LNCap clone FGC
[49] = VCaP (Sigma) cell line, inhibition of cancer cell proliferation, read-out: Prostate cancer EC50 VCaP (Sigma)

Structure (SMILES): CN(C)Cc1cncc(-c2cnc3[nH]nc(-c4nc5c(-c6cc(F)cc(N7CCOCC7)c6)cncc5[nH]4)c3c2)c1 [Compound 46]
- EC50 (BT-549): 1170 nM
- EC50 (CAMA1): 2740 nM
- EC50 (DU4475): 4010 nM
- EC50 (HCC1599): 1170 nM
- EC50 (MCF7): > 10000 nM
- EC50 (MDA-MB-231-Luc): 2090 nM
- EC50 (T47D): 2360 nM
- EC50 (ZR-75-1): 1680 nM
- EC50 (all 50 cell lines): 2860 nM
- EC50 [1, 8]: 0.86 µM
- EC50 [1, 9]: 8.89 µM
- EC50 [1, 10]: 0.473 µM
- EC50 [1, 11]: 2.35 µM
- EC50 [1, 12]: 0.469 µM
- EC50 [1, 13]: 0.491 µM
- EC50 [2, 14]: 0.432 µM
- EC50 [2, 15]: 0.039 µM
- EC50 [2, 16]: 2.78 µM
- EC50 [2, 17]: 0.398 µM
- EC50 [2, 18]: 1.42 µM
- EC50 [2, 19]: 0.176 µM
- EC50 [2, 20]: 3.17 µM
- EC50 [2, 21]: 0.182 µM
- EC50 [2, 22]: 0.801 µM
- EC50 [2, 23]: 0.466 µM
- EC50 [2, 24]: 2.96 µM
- EC50 [2, 25]: 6.09 µM
- EC50 [2, 26]: 0.17 µM
- EC50 [3, 27]: 174 nM
- EC50 [3, 28]: 3590 nM
- EC50 [3, 29]: > 10000 nM
- EC50 [4, 30]: 0.591 µM
- EC50 [4, 31]: 4.68 µM
- EC50 [4, 32]: > 10 µM
- EC50 [4, 33]: 0.417 µM
- EC50 [5, 34]: 0.795 µM
- EC50 [5, 35]: 0.713 µM
- EC50 [5, 36]: 5.69 µM
- EC50 [5, 37]: 0.302 µM
- EC50 [6, 38]: 6080 nM
- EC50 [6, 39]: 2370 nM
- EC50 [6, 40]: 4980 nM
- EC50 [6, 41]: 414 nM
- EC50 [6, 42]: 5400 nM
- EC50 [6, 43]: > 10000 nM
- EC50 [6, 44]: 1970 nM
- EC50 [7, 45]: 2570 nM
- EC50 [7, 46]: 1180 nM
- EC50 [7, 47]: 968 nM
- EC50 [7, 48]: 7780 nM
- EC50 [7, 49]: 4540 nM

Structure (SMILES): c1cc2cc(c1)-c1cncc3[nH]c(nc13)-c1n[nH]c3ccc(cc13)-c1cncc(c1)CNC2 [Compound 54]
- EC50 (BT-549): 75 nM
- EC50 (CAMA1): 167 nM
- EC50 (DU4475): 57 nM
- EC50 (HCC1599): 85 nM
- EC50 (MCF7): 794 nM
- EC50 (MDA-MB-231-Luc): 153 nM
- EC50 (T47D): 167 nM
- EC50 (ZR-75-1): 145 nM
- EC50 (all 50 cell lines): 453 nM
- EC50 [1, 8]: 0.056 µM
- EC50 [1, 9]: 1.28 µM
- EC50 [1, 10]: 0.041 µM
- EC50 [1, 11]: 0.136 µM
- EC50 [1, 12]: 0.049 µM
- EC50 [1, 13]: 0.042 µM
- EC50 [2, 14]: 0.031 µM
- EC50 [2, 15]: 0.005 µM
- EC50 [2, 16]: 0.109 µM
- EC50 [2, 17]: 0.036 µM
- EC50 [2, 18]: 0.121 µM
- EC50 [2, 19]: 0.026 µM
- EC50 [2, 20]: 0.17 µM
- EC50 [2, 21]: 0.017 µM
- EC50 [2, 22]: 0.058 µM
- EC50 [2, 23]: 0.041 µM
- EC50 [2, 24]: 0.254 µM
- EC50 [2, 25]: 0.108 µM
- EC50 [2, 26]: 0.022 µM
- EC50 [3, 27]: 21 nM
- EC50 [3, 28]: 377 nM
- EC50 [3, 29]: 1770 nM
- EC50 [4, 30]: 0.04 µM
- EC50 [4, 31]: 0.225 µM
- EC50 [4, 32]: > 3.5 µM
- EC50 [4, 33]: 0.04 µM
- EC50 [5, 34]: 0.147 µM
- EC50 [5, 35]: 0.065 µM
- EC50 [5, 36]: 0.532 µM
- EC50 [5, 37]: 0.037 µM
- EC50 [6, 38]: 361 nM
- EC50 [6, 39]: 569 nM
- EC50 [6, 40]: 94 nM
- EC50 [6, 41]: 41 nM
- EC50 [6, 42]: 453 nM
- EC50 [6, 43]: 2680 nM
- EC50 [6, 44]: 259 nM
- EC50 [7, 45]: 98 nM
- EC50 [7, 46]: 55 nM
- EC50 [7, 47]: 117 nM
- EC50 [7, 48]: 234 nM
- EC50 [7, 49]: 162 nM
